Measured values taken from US11225491B2, “Thiazolo-pyrimidine HIV-1 reverse transcriptase inhibitor, preparation method therefor, and uses thereof” (priority 2018, dated 2022).
Read-outs that look alike come from different tables or passages of the source.

Key:
[1] = tested on: HIV-1 K103N+Y181C (RES056); experiment: microbe, parasite or virus in culture; format: cell-based; settings: for EC50: Human immunodeficiency virus 1, MT4, read-out: EC50 RES056; for SI RES056: selectivity index, ratio of CC50/EC50, strain RES056
in vitro = settings: human
WT HIV-1 strain (IIIB) = experiment: Anti-HIV activity in MT-4 cells, MTT method, WT strain IIIB; format: cell-based; settings: for SI IIIB: selectivity index, ratio of CC50/EC50, strain IIIB
[2] = tested on: mutant HIV-1 strain F227L + V106A; experiment: microbe, parasite or virus in culture; format: cell-based; settings: Human immunodeficiency virus 1, MT4, read-out: EC50 F227L + V106A
[3] = tested on: mutant HIV-1 strain Y181C; experiment: microbe, parasite or virus in culture; format: cell-based; settings: Human immunodeficiency virus 1, MT4, read-out: EC50 Y181C
[4] = tested on: mutant HIV-1 strain E138K; experiment: microbe, parasite or virus in culture; format: cell-based; settings: Human immunodeficiency virus 1, MT4, read-out: EC50 E138K
[5] = tested on: mutant HIV-1 strain Y188L; experiment: microbe, parasite or virus in culture; format: cell-based; settings: Human immunodeficiency virus 1, MT4, read-out: EC50 Y188L
[6] = tested on: mutant HIV-1 strain L100I; experiment: microbe, parasite or virus in culture; format: cell-based; settings: Human immunodeficiency virus 1, MT4, read-out: EC50 L100I
[7] = tested on: mutant HIV-1 strain K103N; experiment: microbe, parasite or virus in culture; format: cell-based; settings: Human immunodeficiency virus 1, MT4, read-out: EC50 K103N
[8] = Cytotoxicity in mock-infected MT-4 cells, MTT method; settings: human
[9] = Human immunodeficiency virus 1, MT4, 50% protection of MT-4 cell cultures against HIV-1-induced cytopathic effect, MTT method, strain IIIB, read-out: EC50 IIIB

SMILES | EC50 [1] [nM] | SI RES056 [1] | CC50 at 5 days (in vitro) [nM] | EC50 (WT HIV-1 strain (IIIB); [9]) [nM] | SI IIIB (WT HIV-1 strain (IIIB)) | EC50 [2] [nM] | EC50 [3] [nM] | EC50 [4] [nM] | EC50 [5] [nM] | EC50 [6] [nM] | EC50 [7] [nM] | CC50 at 5 days [8] [nM] | EC50 (WT HIV-1 strain (IIIB); Human immunodeficiency virus 1, IIIB, MT4, read-out: EC50 IIIB) [nM]
Cc1cc(C#N)cc(C)c1Oc1nc(NC2CCN(Cc3ccc(S(=O)(=O)N4CCOCC4)cc3)CC2)nc2ncsc12 [SZ4] | 94.4 ± 0.5 | 187 | 17600 ± 2370 | 3.7 ± 0.8 | 4665 |  |  |  |  |  |  |  | 
Cc1cc(C#N)cc(C)c1Oc1nc(NC2CCN(Cc3ccc(S(=O)(=O)NC4CC4)cc3)CC2)nc2ncsc12 [SZ3] | 41.3 ± 5.2 | 561 | 23200 ± 4520 | 5 ± 0.2 | 4564 |  |  |  |  |  |  |  | 
Cc1cc(C#N)cc(C)c1Oc1nc(NC2CCN(Cc3ccc(S(N)(=O)=O)cc3)CC2)nc2ncsc12 [SZ1] | 26.1 ± 1.5 | 961 | 25100 ± 749 | 2.2 ± 0.9 | 11071 | 18.8 ± 4.5 | 6.7 ± 1.2 | 6.5 ± 1.5 | 11.4 ± 2.3 | 7.8 ± 0.2 | 3.9 ± 1.9 |  | 
Cc1cc(C#N)cc(C)c1Oc1nc(NC2CCN(Cc3ccc(S(N)(=O)=O)cc3)CC2)nc2scnc12 [TZ1] | 18.3 ± 2.3 | 1265 | 23200 ± 1750 | 1.6 ± 0.2 | 14194 | 16 ± 4.6 | 6.5 ± 1 | 7.9 ± 0.1 | 10.8 ± 0.6 | 9.6 ± 1.5 | 1.9 ± 0.1 |  | 
Cc1cc(C#N)cc(C)c1Oc1nc(NC2CCN(Cc3ccc(S(C)(=O)=O)cc3)CC2)nc2scnc12 [TZ3, 3,5-dimethyl-4-((5-((1-(4-(methylsulfonyl)benzyl)piperidin-4-yl)amino)thiazolo[5,4-d]pyrimidin-7-yl)oxy)benzonitrile] | 18.1 ± 1.1 | 791 | 14300 ± 5500 | 2.3 ± 0.7 | 6212 | 15.2 ± 3.4 | 7.5 ± 0.6 | 6.6 ± 0.1 | 7.1 ± 0.2 | 5.6 ± 0.7 | 3.3 ± 0.3 |  | 
Cc1cc(C#N)cc(C)c1Oc1nc(NC2CCN(Cc3ccc([N+](=O)[O-])cc3)CC2)nc2ncsc12 [SZ8, 3,5-dimethyl-4-((5-((1-(4-nitrobenzyl)piperidin-4-yl)amino)thiazolo[4,5-d]pyrimidin-7-yl)oxy)benzonitrile] | 129 ± 4.5 | 40 | 5170 ± 134 | 3.4 ± 0.2 | 1482 |  |  |  |  |  |  |  | 
Cc1cc(C#N)cc(C)c1Oc1nc(NC2CCN(Cc3cccc(C(N)=O)c3)CC2)nc2ncsc12 [SZ9] | 559 ± 8.5 | 49 | 27300 ± 965 | 1.3 | 20099 |  |  |  |  |  |  |  | 
Cc1cc(C#N)cc(C)c1Oc1nc(NC2CCN(Cc3ccc(C(N)=O)cc3)CC2)nc2ncsc12 [SZ5] | > 15600 | <1 | 15500 ± 2840 | > 15600 | <1 |  |  |  |  |  |  |  | 
Cc1cc(C#N)cc(C)c1Oc1nc(NC2CCN(Cc3cccc(C(N)=O)c3)CC2)nc2scnc12 [TZ6] | 222 ± 47 | 130 | 28800 ± 634 | 3 ± 0.6 | 9565 |  |  |  |  |  |  |  | 
Cc1cc(C#N)cc(C)c1Oc1nc(NC2CCN(Cc3ccc(C(N)=O)cc3)CC2)nc2scnc12 [TZ2] | 28.1 ± 13 | 965 | 27100 ± 1300 | 1.6 ± 0.1 | 16412 | 20.3 ± 2.6 | 5.1 ± 0.1 | 5.2 ± 0.8 | 7.2 ± 0.2 | 6.3 ± 2.8 | 1.6 ± 0.4 |  | 
Cc1cc(C#N)cc(C)c1Oc1nc(NC2CCN(Cc3ccncc3)CC2)nc2ncsc12 [SZ7, 3,5-dimethyl-4-((5-((1-(pyridin-4-ylmethyl)piperidin-4-yl)amino)thiazolo[4,5-d]pyrimidin-7-yl)oxy)benzonitrile] | 24.7 ± 1.9 | 1227 | 30300 ± 760 | 1.8 ± 0.4 | 16818 | 32.9 ± 23.8 | 5.8 ± 2.2 | 5.5 ± 1.2 | 7.7 ± 1 | 5.6 ± 2.2 | 1.9 ± 0.6 |  | 
Cc1cc(C#N)cc(C)c1Oc1nc(Nc2ccc(C#N)cc2)nc(N)c1Br [ETR, Etravirine, reference compound] | 45.4 ± 15.5 |  | > 4590 | 5.1 ± 0.8 |  | 19.7 ± 7.3 | 14.5 ± 8.2 | 9.7 ± 6.9 | 20.4 ± 8.6 | 6 ± 1.5 |  |  | 
CNS(=O)(=O)c1ccc(CN2CCC(Nc3nc(Oc4c(C)cc(C#N)cc4C)c4scnc4n3)CC2)cc1 [SZ2] | 19.4 ± 13.1 | 710 | 13700 ± 3470 | 4.8 ± 0.1 | 2828 | 22.6 ± 3.8 | 7.3 ± 0.1 | 9.2 ± 0.7 | 14 ± 2 | 8.7 ± 0.3 | 5.1 ± 1 |  | 
Cc1cc(C#N)cc(C)c1Oc1nc(NC2CCN(Cc3ccncc3)CC2)nc2scnc12 [TZ4, 3,5-dimethyl-4-((5-((1-(pyridin-4-ylmethyl)piperidin-4-yl)amino)thiazolo[5,4-d]pyrimidin-7-yl)oxy)benzonitrile] | 26.8 ± 0.1 | 1074 | 28700 ± 489 | 2.7 | 10447 | 30.9 ± 6.2 | 5.8 ± 0.1 | 6.5 ± 0.3 | 6.6 ± 1 | 13.7 ± 7.1 | 3.3 ± 2.3 |  | 
Cc1cc(C#N)cc(C)c1Oc1nc(NC2CCN(Cc3ccc(S(C)(=O)=O)cc3)CC2)nc2ncsc12 [SZ6, 3,5-dimethyl-4-((5-((1-(4-(methylsulfonyl)benzyl)piperidin-4-yl)amino)thiazolo[4,5-d]pyrimidin-7-yl)oxy)benzonitrile] | 27.4 ± 0.3 | 400 | 10900 ± 2750 | 2.2 ± 0.6 | 4816 | 15.4 ± 2.3 | 7 ± 0.9 | 6.1 ± 1.1 | 10.7 | 3.2 ± 0.7 | 3.8 ± 2.8 |  | 
Cc1ccnc2c1NC(=O)c1cccnc1N2C1CC1 [NVP, Nevirapine, reference compound] | > 9510 |  |  |  |  |  |  |  |  |  |  | > 9510 | 163 ± 41.2
Cc1cc(C#N)cc(C)c1Oc1nc(NC2CCN(Cc3ccc([N+](=O)[O-])cc3)CC2)nc2scnc12 [TZ5, 3,5-dimethyl-4-((5-((1-(4-nitrobenzyl)piperidin-4-yl)amino)thiazolo[5,4-d]pyrimidin-7-yl)oxy)benzonitrile] | 126 ± 16 | 45 | 5680 ± 423 | 8.2 ± 1.9 | 687 |  |  |  |  |  |  |  | 
